Measured values from patent publication US20250236589A1, “THERAPEUTIC PHENETHYLAMINE COMPOSITIONS AND METHODS OF USE” (Cybin IRL Limited, priority 2022, published 2025).
Where two headings read alike, the source gives them in different places. Marks after values point to notes of the source that are not given here.

Legend:
[1] = cited from earlier work
[2] = Plasma and brain concentrations after dosing in mice (screening); format: in vivo, mouse; conditions: for concentration at 15 min / concentration at 160 min / Kp at 160 min: mouse; for concentration at 15 min / concentration at 160 min: sc, mice, 3 mg/kg s.c.; for Kp at 160 min: brain/plasma, subcutaneous, 3 mg/kg, read-out: brain/plasma ratio, 160 min
[3] = test system: mice; test: Head-twitch response (HTR) screening in mice; format: in vivo, mouse
Experimental: Protocols were followed according to Canal C E, Morgan D. Head-twitch response in rodents induced by the hallucinogen 2,5-dimethoxy-4-iodoamphetamine: a comprehensive history, a re-evaluation of mechanisms, and its utility as a model. […] Mice were housed in standard laboratory cages with ad libitum access to food and water and were acclimated to the vivarium for at least one week prior to testing in a procedure room. In a typical experiment, mice were injected 3 mg/kg of test article subcutaneously. Mice were placed immediately thereafter in a clear, polycarbonate box (46×20×20 cm), and HTRs were counted at various time points after administration using hand-held tally counters. In a separate experiment, plasma and brain samples were collected at 15 and 160 minutes after administration of test compounds to measure plasma and brain concentrations. Quantification was performed using LC-MS/MS method (LLOQ, 9 nM).

[4] = biological target: human 5-HT2B receptor (Homo sapiens (Human), UniProt P41595); test: 5-HT2B functional assay, IP1 (IPOne); format: cell-based; conditions: for Emax: IP1 assay
Experimental: 5-HT2A,2B,2C receptor-mediated Gq activation—canonical signaling pathways—[phosphoinositide hydrolysis leading to the production of inositol phosphate 1 (IP1, IPOne, Cisbio assay) or direct G-protein activation using TRUPATH technology]were measured as previously described (Porter, R. H. P., Benwell, K. R., Lamb, H., Malcolm, C. S., Allen, N. F., Revell, D. F., Adams, D. R. and Sheardown, M. J., 1999, Functional characterization of agonists at recombinant human 5-HT2a, 5HT2b and 5-HT2c receptors in CHO-K1 cells, Brit J Pharmacol 128, 13; Olsen, R. H. J., DiBerto, J. F., English, J. G. et al. TRUPATH, an open-source biosensor platform for interrogating the GPCR transducerome. […] Briefly, for the IPOne assay, for 5-HT2ARs, CHO-K1 or HEK-293 cells were incubated with test articles and 5-HT (positive control) in stimulation buffer containing LiCl. After incubation, cells were lysed and fluorescence acceptor and donor were added. FRET was measured after 60 min at room temperature using a microplate reader (Envision, Perkin Elmer). TRUPATH assays followed a similar workflow, except that different reagents were used, and LiCl was not included in the samples; the protocol was based on the report by Olsen, R. H. J. et al., cited above.

[5] = biological target: T1, 5-HT2A receptor (Homo sapiens (Human), UniProt P28223); test: 5-HT2A functional assay, IP1 (IPOne); format: cell-based; conditions: for 2A/2B EC50 Selectivity / Emax: IP1 assay; for Emax: relative to 5-HT
Experimental: After incubation, cells were lysed and fluorescence acceptor and donor were added. FRET was measured after 60 min at room temperature using a microplate reader (Envision, Perkin Elmer). TRUPATH assays followed a similar workflow, except that different reagents were used, and LiCl was not included in the samples; the protocol was based on the report by Olsen, R. H. J. et al., cited above.

[6] = biological target: T1, 5-HT2A receptor; test: 5-HT2A radioligand competition binding ([3H]LSD or [3H]ketanserin)
[7] = In vitro liver microsome stability (RLM); format: in vitro ADME; conditions: rat, rat liver microsomes, 0.5 mg/mL microsomes, NADPH, read-out: RLM, t1/2
Experimental: (§1) In vitro stability was determined in Human (HLM), Rat (RLM), Mouse (MsLM), and dog (DLM) Liver Microsomes. All liver microsomes were purchased from a commercial supplier (e.g. XenoTech). The reaction mixture, minus NADPH, was prepared as described below. The test compound was added into the reaction mixture at a final concentration of 1 μM or co-dosed with their deuterated analog(s) at 1 μM each. The control compound, testosterone, was run simultaneously with the test compound in a separate reaction. The reaction mixture (without cofactor) was equilibrated in a shaking water bath at 37° C. for 5 minutes. The reaction was initiated by the addition of the cofactor, and the mixture was incubated in a shaking water bath at 37° C. Aliquots (150 μL) were withdrawn at 0, 5, 10, 20, 30, 60, and 120 minutes. Test compound and testosterone samples were immediately combined with 150 μL of ice-cold acetonitrile (ACN) containing 0.1% formic acid and internal standard to terminate the reaction. The samples were then mixed and centrifuged to precipitate proteins. All samples were assayed by LC-MS/MS using electrospray ionization. The peak area response ratio (PARR) of analyte to internal standard at each time point was compared to the PARR at time 0 to determine the percent remaining at each time point. Half-lives were calculated using GraphPad software, fitting to a single-phase exponential decay equation.

[8] = biological target: 5-HT1A receptors (Homo sapiens (Human), UniProt P08908); test: 5-HT1A radioligand binding ([3H]8-OH-DPAT); conditions: for inhibition at 0.1 µM: 100 nM
Experimental: In another series of 5-HT1A,2A,2B radioligand competition binding assays, the conditions were as follows: For 5-HT1A assays, cell membrane homogenates (˜30 μg protein) derived from HEK-293 cells expressing human 5-HT1ARs were incubated with 0.5 nM [^3H]8-hydroxy-2-(di-n-propylamino)tetralin ([^3H]8-OH-DPAT) for 60 min at room temperature in the presence or absence of the test article. Non-specific binding was determined in the presence of 10 μM 8-OH-DPAT. Samples were then analyzed as described above, with only immaterial differences. […] Samples were then analyzed as described above.

[9] = In vitro liver microsome stability (HLM); format: in vitro ADME; conditions: human, human liver microsomes, 0.5 mg/mL microsomes, NADPH, read-out: HLM, t1/2
Experimental: as §1, with “The peak area response ratio (PARR) of analyte to internal standard at each time point was compared to the PARR at time 0 to determine the percent remaining at each time point.” left out

[10] = In vitro liver microsome stability (DLM); format: in vitro ADME; conditions: dog, dog liver microsomes, 0.5 mg/mL microsomes, NADPH, read-out: DLM, t1/2
Experimental: as §1, with “The peak area response ratio (PARR) of analyte to internal standard at each time point was compared to the PARR at time 0 to determine the percent remaining at each time point.” left out

[11] = biological target: MAO-A (Homo sapiens (Human), UniProt P21397); test: Recombinant human MAO-A activity (stability); format: in vitro ADME; conditions: hrMAO 0.02 mg/mL, read-out: MAO-A, t1/2
Experimental: hrMAO-A and MAO control were purchased from XenoTech. The reaction mixture was prepared as described below. The test compound was added into the reaction mixture at a final concentration of 1 μM or co-dosed with their deuterated analog at 1 μM each. The positive control kynuramine (25 μM) was run simultaneously with the test compound in a separate reaction. The reaction mixture (without test compounds or kynuramine) was equilibrated in a shaking water bath at 37° C. for 5 minutes. The reaction was initiated by the addition of the test compound or kynuramine, and the mixture was incubated in a shaking water bath at 37° C. Aliquots (150 μL) of the test compound reaction mixture were withdrawn at 0, 5, 10, 20, 30, 60, and 120 minutes. Aliquots (150 μL) of the positive control reaction mixture were withdrawn at 0 and 30 minutes. Test compound(s) and kynuramine samples were immediately combined with 150 μL of ice-cold 100% acetonitrile containing 0.1% formic acid and internal standard (0.2 μM metoprolol) to terminate the reaction. The samples were then mixed and centrifuged to precipitate proteins. All samples were assayed by LC-MS/MS. The peak area response ratio (PARR) of analyte to internal standard at each time point was compared to the PARR at time 0 to determine the percent remaining at each time point. Half-lives were calculated using GraphPad software, fitting to a single-phase exponential decay equation.

[12] = In vitro liver microsome stability (MsLM); format: in vitro ADME; conditions: mouse, mouse liver microsomes, 0.5 mg/mL microsomes, NADPH, read-out: MsLM, t1/2
Experimental: as §1, with “The peak area response ratio (PARR) of analyte to internal standard at each time point was compared to the PARR at time 0 to determine the percent remaining at each time point.” left out

[13] = biological target: 5-HT2C receptor (Homo sapiens (Human), UniProt P28335); test: 5-HT2C radioligand competition binding ([3H]mesulergine or [3H]LSD); conditions: read-out: 5-HT2C, Ki; radioligand [3H]mesulergine
[14] = brain, read-out: Brain, 160 min
[15] = plasma, read-out: Plasma, 15 min
[16] = plasma, read-out: Plasma, 160 min
[17] = read-out: 5-HT2A, Ki, radioligand [3H]ketanserin

Sequence of MAO-A (P21397 whole entry, looked up): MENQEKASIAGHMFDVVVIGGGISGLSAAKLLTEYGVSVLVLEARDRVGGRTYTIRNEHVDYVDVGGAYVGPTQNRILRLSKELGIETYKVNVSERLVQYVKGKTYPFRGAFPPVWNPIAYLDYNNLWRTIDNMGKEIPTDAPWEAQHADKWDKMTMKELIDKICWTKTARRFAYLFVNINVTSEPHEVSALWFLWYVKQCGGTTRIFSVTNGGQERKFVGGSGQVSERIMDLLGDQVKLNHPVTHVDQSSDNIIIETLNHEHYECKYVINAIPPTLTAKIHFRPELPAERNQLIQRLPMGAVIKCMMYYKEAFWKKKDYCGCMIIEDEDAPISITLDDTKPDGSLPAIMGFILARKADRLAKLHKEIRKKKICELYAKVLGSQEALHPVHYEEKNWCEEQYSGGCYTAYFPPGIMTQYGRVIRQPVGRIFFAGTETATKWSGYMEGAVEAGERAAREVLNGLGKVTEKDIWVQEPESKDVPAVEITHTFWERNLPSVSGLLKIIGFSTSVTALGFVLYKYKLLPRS
Sequence of human 5-HT2B receptor (P41595 whole entry, looked up): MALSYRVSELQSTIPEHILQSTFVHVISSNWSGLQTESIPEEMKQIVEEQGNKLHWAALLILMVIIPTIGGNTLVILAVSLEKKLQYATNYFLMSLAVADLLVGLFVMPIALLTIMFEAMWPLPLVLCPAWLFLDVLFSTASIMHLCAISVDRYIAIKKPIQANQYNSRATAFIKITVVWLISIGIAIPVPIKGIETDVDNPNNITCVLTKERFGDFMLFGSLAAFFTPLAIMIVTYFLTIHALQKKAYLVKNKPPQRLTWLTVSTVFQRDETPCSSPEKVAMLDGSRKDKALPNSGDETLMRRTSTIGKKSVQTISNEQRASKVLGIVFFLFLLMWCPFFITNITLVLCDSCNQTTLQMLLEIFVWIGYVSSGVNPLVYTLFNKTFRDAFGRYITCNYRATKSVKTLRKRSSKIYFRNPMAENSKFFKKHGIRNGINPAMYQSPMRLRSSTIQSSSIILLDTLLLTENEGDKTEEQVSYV
Sequence of 5-HT2C receptor (P28335 whole entry, looked up): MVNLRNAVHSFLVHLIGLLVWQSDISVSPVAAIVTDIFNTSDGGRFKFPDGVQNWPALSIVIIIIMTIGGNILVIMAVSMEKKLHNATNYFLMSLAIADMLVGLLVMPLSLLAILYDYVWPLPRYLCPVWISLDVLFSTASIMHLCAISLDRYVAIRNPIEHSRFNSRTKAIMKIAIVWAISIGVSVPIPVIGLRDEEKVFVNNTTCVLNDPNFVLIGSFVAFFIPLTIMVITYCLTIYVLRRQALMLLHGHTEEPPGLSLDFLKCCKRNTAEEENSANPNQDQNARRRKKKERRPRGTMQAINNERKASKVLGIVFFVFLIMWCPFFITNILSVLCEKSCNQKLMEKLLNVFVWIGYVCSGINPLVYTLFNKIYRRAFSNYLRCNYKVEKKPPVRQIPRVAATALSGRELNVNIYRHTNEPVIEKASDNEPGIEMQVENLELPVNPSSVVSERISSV

COc1cc(OC)c(OC)cc1CCN [2C—O]
activity after oral administration [1]: inactive

COc1cc(SCCC(F)F)c(OC)cc1CCN [Compound I-3, 2-(4-((3,3-difluoropropyl)thio)-2,5-dimethoxyphenyl)ethan-1-amine]
concentration at 15 min ([2]; brain, read-out: Brain 15 min): 670 nM | concentration at 160 min [2, 14]: 510 nM | Kp at 160 min ([2]; 160 min after 3 mg/kg): 9.3 | concentration at 15 min [2, 15]: 700 nM | concentration at 160 min [2, 16]: 55 nM | HTR 15-25 min ([3]; mice, 3 mg/kg s.c.): 5 | HTR 160-170 min ([3]; mice, 3 mg/kg s.c.): 2.5 | EC50 [4]: 160 nM | Emax ([4]; constrained to 100%): 100% | EC50 [5]: 10 nM | 2A/2B EC50 Selectivity [5]: 16 | Emax [5]: 93% | Ki [6]: 44 nM | affinity at 5-HT2A receptors (in words) [6]: high affinity | Ki ([6]; read-out: 5-HT2A, Ki, [3H]LSD, high-affinity active state): 0.4 nM | half-life at 1 μM [7]: 1.85 h | inhibition at 0.1 µM [8]: 10% | inhibition at 1 µM [8]: 63%

COc1cc(SC(F)F)c(OC)cc1CCN [Compound I-8, 2-(4-((difluoromethyl)thio)-2,5-dimethoxyphenyl)ethan-1-amine]
concentration at 15 min ([2]; brain, read-out: Brain 15 min): 1900 nM | concentration at 160 min [2, 14]: 2200 nM | Kp at 160 min ([2]; 160 min after 3 mg/kg): 74 | concentration at 15 min [2, 15]: 300 nM | concentration at 160 min [2, 16]: 30 nM | HTR 15-25 min ([3]; mice, 3 mg/kg s.c.): 33.4 | HTR 160-170 min ([3]; mice, 3 mg/kg s.c.): 17.4 | EC50 [4]: 67.9 nM | Emax ([4]; relative to 5-HT): 87% | EC50 [5]: 5.3 nM | 2A/2B EC50 Selectivity [5]: 12.8 | Emax [5]: 99% | affinity at 5-HT2A receptors (in words) [6]: high affinity | Ki ([6]; read-out: 5-HT2A, Ki, radioligand [3H]LSD): 6.3 nM | inhibition at 0.1 µM [8]: 38% | inhibition at 1 µM [8]: 84%

[2H]C([2H])([2H])Oc1cc(SC(F)(F)F)c(OC([2H])([2H])[2H])cc1CCN [II-10, 2-(2,5-bis(methoxy-d3)-4-((trifluoromethyl)thio)phenyl)ethan-1-amine]
half-life at 1 μM [9]: > 2 h | brain/plasma ratio, 160 min ([2]; 160 min after 3 mg/kg): 24.4 | concentration at 160 min [2, 14]: 8800 nM | Kp at 160 min ([2]; 160 min after 3 mg/kg): 24 to 32 | concentration at 160 min [2, 16]: 360 nM | HTR 15-25 min ([3]; measured 0-15 min): 25.6 ## | half-life at 1 μM [10]: > 2 h | half-life at 1 μM [11]: > 2 h | 5-HT2AR agonist activity (in words) [5]: pronounced agonists | Ki [6]: 35 nM | affinity at 5-HT2A receptors (in words) [6]: superior affinity | Ki ([6]; read-out: 5-HT2A, Ki, [3H]ketanserin, high-affinity active state): 0.54 nM | half-life at 1 μM [12]: > 2 h | half-life at 1 μM [7]: 0.988 h

[2H]C([2H])(N)Cc1cc(OC)c(C(F)(F)F)cc1OC [IV-3, 2-(2,5-dimethoxy-4-(trifluoromethyl)phenyl)ethan-1,1-d2-1-amine]
half-life at 1 μM [11]: 1.7 h | Ki [6, 17]: 42 nM | half-life at 1 μM [7]: 0.185 h | Ki [13]: 23 nM

COc1cc(SC)c(OC)cc1CCN [Reference Compound 3, 2-(2,5-dimethoxy-4-(methylthio)phenyl)ethan-1-amine, reference compound]
HTR 15-25 min ([3]; measured 0-15 min): 19 ## | half-life at 1 μM [11]: > 2 h | Ki [6, 17]: 296 nM | half-life at 1 μM [7]: 0.0867 h

COc1cc(C(F)(F)F)c(OC)cc1CCN [Reference Compound 4, 2-(2,5-dimethoxy-4-(trifluoromethyl)phenyl)ethan-1-amine, reference compound]
half-life at 1 μM [11]: 1.46 h | Ki [6, 17]: 25 nM | half-life at 1 μM [7]: 0.128 h | Ki [13]: 35 nM
